Measurements taken from article PMC3165084 (Leukemia, 2011).
Where “and” joins values, the source holds several entries; their conditions need not be identical. Equal values may be shown once.

Key:
[1] = Plasma pharmacokinetics of tipifarnib, LCMS/MS, non-compartmental analysis; type: in vivo, human
advanced cancer = details: 5-day, every 12 hour dosing; highest dose level 1300 mg twice daily for five days; ref [4]; cited from earlier work
[2] = test system: myeloid and lymphoid leukemias; details: ref [2], cited from earlier work
[3] = test system: previously untreated AML or MDS; details: 600 mg bid, 21 day schedule, older patients with previously untreated AML or MDS; ref [5]; cited from earlier work
MDS = details: above 400 mg bid, 21-day bid dosing; ref [6]; cited from earlier work
solid tumor = details: 900 mg bid dose level, week-on, week-off; ref [7]; cited from earlier work
farnesyl transferase = details: correlative studies in patients; ref [6]–[8]; cited from earlier work
[4] = Day 5, 1200 mg bid, plasma, individual subjects 4-10

SMILES: Cn1cncc1[C@@](N)(c1ccc(Cl)cc1)c1ccc2c(c1)c(-c1cccc(Cl)c1)cc(=O)n2C [tipifarnib, Tipifarnib]
- Cmax [1, 4]: 1880 ng/mL and 2490 ng/mL and 1020 ng/mL
- Cmin [1, 4]: 97 ng/mL and 204 ng/mL and 234 ng/mL and 283 ng/mL and 166 ng/mL and 113 ng/mL and 101 ng/mL
- Tmax [1, 4]: 3.0 h and 3.1 h and 2.8 h
- Cmin ([1]; Day 5, 1400 mg bid, plasma, individual subjects 1-3): 781 ng/mL and 170 ng/mL
- tipifarnib accumulation between days 1 and 5 ([1]; at 1200 and 1400 mg bid): relatively modest
- AUC(0-t) ([1]; human, plasma, oral, 1200 mg, AUC12h, high, Day 1, 1200 mg, plasma): 15700 ng·h/mL
- AUC(0-t) ([1]; human, plasma, oral, 1200 mg, AUC12h, high, Day 5, 1200 mg bid, plasma): 14200 ng·h/mL
- AUC(0-t) ([1]; human, plasma, oral, 1200 mg, AUC12h, low, Day 1, 1200 mg, plasma): 3240 ng·h/mL
- AUC(0-t) ([1]; human, plasma, oral, 1200 mg, AUC12h, low, Day 5, 1200 mg bid, plasma): 4620 ng·h/mL
- AUC(0-t) ([1]; human, plasma, oral, 1200 mg, AUC12h, median, Day 1, 1200 mg, plasma): 4740 ng·h/mL
- AUC(0-t) ([1]; human, plasma, oral, 1200 mg, AUC12h, median, Day 5, 1200 mg bid, plasma): 7370 ng·h/mL
- Cmax ([1]; human, plasma, oral, 1200 mg, Cmax, high, Day 1, 1200 mg, plasma): 3160 ng/mL
- Cmax ([1]; human, plasma, oral, 1200 mg, Cmax, high, Day 5, 1200 mg bid, plasma): 2500 ng/mL
- Cmax ([1]; human, plasma, oral, 1200 mg, Cmax, low, Day 1, 1200 mg, plasma): 404 ng/mL
- Cmax ([1]; human, plasma, oral, 1200 mg, Cmax, low, Day 5, 1200 mg bid, plasma): 762 ng/mL
- Cmax ([1]; human, plasma, oral, 1200 mg, Cmax, median, Day 1, 1200 mg, plasma): 906 ng/mL
- Cmax ([1]; human, plasma, oral, 1200 mg, Cmax, median, Day 5, 1200 mg bid, plasma): 1210 ng/mL
- concentration at 5 day ([1]; human, plasma, oral, 1200 mg, Cmin, high, Day 5, 1200 mg bid, plasma): 283 ng/mL
- concentration at 5 day ([1]; human, plasma, oral, 1200 mg, Cmin, low, Day 5, 1200 mg bid, plasma): 97 ng/mL
- concentration at 5 day ([1]; human, plasma, oral, 1200 mg, Cmin, median, Day 5, 1200 mg bid, plasma): 166 ng/mL
- Tmax ([1]; human, plasma, oral, 1200 mg, Tmax, high, Day 1, 1200 mg, plasma): 3 h
- Tmax ([1]; human, plasma, oral, 1200 mg, Tmax, high, Day 5, 1200 mg bid, plasma): 5 h
- Tmax ([1]; human, plasma, oral, 1200 mg, Tmax, low, Day 1, 1200 mg, plasma): 2 h
- Tmax ([1]; human, plasma, oral, 1200 mg, Tmax, low, Day 5, 1200 mg bid, plasma): 1 h
- Tmax ([1]; human, plasma, oral, 1200 mg, Tmax, median, Day 1, 1200 mg, plasma): 2.1 h
- Tmax ([1]; human, plasma, oral, 1200 mg, Tmax, median, Day 5, 1200 mg bid, plasma): 3 h
- AUC(0-t) ([1]; human, plasma, oral, 1400 mg, AUC12h, high, Day 1, 1400 mg, plasma): 18700 ng·h/mL
- AUC(0-t) ([1]; human, plasma, oral, 1400 mg, AUC12h, high, Day 5, 1400 mg bid, plasma): 25600 ng·h/mL
- AUC(0-t) ([1]; human, plasma, oral, 1400 mg, AUC12h, low, Day 1, 1400 mg, plasma): 8950 ng·h/mL
- AUC(0-t) ([1]; human, plasma, oral, 1400 mg, AUC12h, low, Day 5, 1400 mg bid, plasma): 8710 ng·h/mL
- AUC(0-t) ([1]; human, plasma, oral, 1400 mg, AUC12h, median, Day 1, 1400 mg, plasma): 13800 ng·h/mL
- AUC(0-t) ([1]; human, plasma, oral, 1400 mg, AUC12h, median, Day 5, 1400 mg bid, plasma): 17100 ng·h/mL
- Cmax ([1]; human, plasma, oral, 1400 mg, Cmax, high, Day 1, 1400 mg, plasma): 4240 ng/mL
- Cmax ([1]; human, plasma, oral, 1400 mg, Cmax, high, Day 5, 1400 mg bid, plasma): 3890 ng/mL
- Cmax ([1]; human, plasma, oral, 1400 mg, Cmax, low, Day 1, 1400 mg, plasma): 1690 ng/mL
- Cmax ([1]; human, plasma, oral, 1400 mg, Cmax, low, Day 5, 1400 mg bid, plasma): 1370 ng/mL
- Cmax ([1]; human, plasma, oral, 1400 mg, Cmax, median, Day 1, 1400 mg, plasma): 3920 ng/mL
- Cmax ([1]; human, plasma, oral, 1400 mg, Cmax, median, Day 5, 1400 mg bid, plasma): 2630 ng/mL
- concentration at 12 h ([1]; human, plasma, oral, 1400 mg, Cmin, high, Day 1, 1400 mg, plasma): 329 ng/mL
- concentration at 5 day ([1]; human, plasma, oral, 1400 mg, Cmin, high, Day 5, 1400 mg bid, plasma): 781 ng/mL
- concentration at 5 day ([1]; human, plasma, oral, 1400 mg, Cmin, low, Day 5, 1400 mg bid, plasma): 170 ng/mL
- concentration at 5 day ([1]; human, plasma, oral, 1400 mg, Cmin, median, Day 5, 1400 mg bid, plasma): 476 ng/mL
- Tmax ([1]; human, plasma, oral, 1400 mg, Tmax, high, Day 1, 1400 mg, plasma): 3.2 h
- Tmax ([1]; human, plasma, oral, 1400 mg, Tmax, high, Day 5, 1400 mg bid, plasma): 5 h
- Tmax ([1]; human, plasma, oral, 1400 mg, Tmax, low, Day 1, 1400 mg, plasma): 2 h
- Tmax ([1]; human, plasma, oral, 1400 mg, Tmax, low, Day 5, 1400 mg bid, plasma): 3 h
- Tmax ([1]; human, plasma, oral, 1400 mg, Tmax, median, Day 1, 1400 mg, plasma): 3.1 h
- Tmax ([1]; human, plasma, oral, 1400 mg, Tmax, median, Day 5, 1400 mg bid, plasma): 4 h
- AUC(0-t) ([1]; human, plasma, oral, median AUC12h, remaining patients, day 1): 7580 ng·h/mL
- AUC(0-t) ([1]; human, plasma, oral, median AUC12h, remaining patients, day 5): 4320 ng·h/mL
- AUC(0-t) ([1]; human, plasma, oral, median AUC12h, two patients with decreased blasts, day 1): 16300 ng·h/mL
- AUC(0-t) ([1]; human, plasma, oral, median AUC12h, two patients with decreased blasts, day 5): 13200 ng·h/mL
- Cmax ([1]; human, plasma, oral, median Cmax, remaining patients, day 1): 1290 ng/mL
- Cmax ([1]; human, plasma, oral, median Cmax, remaining patients, day 5): 881 ng/mL
- Cmax ([1]; human, plasma, oral, median Cmax, two patients with decreased blasts, day 1): 2440 ng/mL
- Cmax ([1]; human, plasma, oral, median Cmax, two patients with decreased blasts, day 5): 2550 ng/mL
- fold higher median AUC and Cmax in the two patients with decreased blasts vs median of the non-responders ([1]; on both day 1 and day 5): 2–3 fold
- pharmacokinetic behavior (dose linearity) ([1]; present data taken together with earlier studies): linear up to doses as high as 1400 mg bid
- protocol-defined maximum tolerated dose (MTD) (advanced cancer): not achieved
- response at lowest dose level ([2]; 100 mg bid, 21-day continuous dosing): a CR at the lowest dose level
- overall response rate ([2]; 34 patients, 21-day continuous dosing schedule): 29%
- partial response, patients [3]: 10%
- dose limiting toxicities (MDS): headache, fatigue, confusion, and vision changes
- DLT (solid tumor): grade 3 fatigue
- duration of farnesyl transferase inhibition after administration (farnesyl transferase): seven days
